These results are taken from patent US12692232B2, “Indole carboxamide compound, preparation therefor and use thereof” (NANJING RUISHUNING MEDICAL TECHNOLOGY CO., LTD., priority 2021, dated 2026).

The structures appear in SMILES notation.

For orientation: Kd means the equilibrium constant for the complex coming apart. Read a high Kd as a looser complex.

The test system of test [1] is H22 liver subcutaneous transplanted tumor. The test is described as follows: Mouse model of H22 liver subcutaneous transplanted tumor. It counts as in vivo. On the procedure: The method was as follows:
Experimental procedure: H22 hepatoma cell suspension was adjusted to 1×10^7/mL after dilution and counting with normal saline, and 0.2 mL per mouse was inoculated on the back of the mice. After 24 hours, the mice were weighed and administered drug at a dose of 0.1 mL/10 g once a day, wherein the mice in the solvent control group and the treatment groups were administered 0.9% sodium chloride solution and the compound of the present invention, respectively, for 14 days, and the mice in the CTX group were injected intraperitoneally for 14 days. The mice were weighed after 14 days. The animals were executed and the tumor blocks were removed and weighed separately. The tumor inhibition rate was calculated according to the following formula: tumor inhibition rate (%)=(1−average tumor weight in a treatment group/average tumor weight in the solvent control group)×100%.

For a further test, the target named is T1, TRPC7 protein (Homo sapiens, UniProt Q9HCX4).
T1 sequence (Q9HCX4 1-862): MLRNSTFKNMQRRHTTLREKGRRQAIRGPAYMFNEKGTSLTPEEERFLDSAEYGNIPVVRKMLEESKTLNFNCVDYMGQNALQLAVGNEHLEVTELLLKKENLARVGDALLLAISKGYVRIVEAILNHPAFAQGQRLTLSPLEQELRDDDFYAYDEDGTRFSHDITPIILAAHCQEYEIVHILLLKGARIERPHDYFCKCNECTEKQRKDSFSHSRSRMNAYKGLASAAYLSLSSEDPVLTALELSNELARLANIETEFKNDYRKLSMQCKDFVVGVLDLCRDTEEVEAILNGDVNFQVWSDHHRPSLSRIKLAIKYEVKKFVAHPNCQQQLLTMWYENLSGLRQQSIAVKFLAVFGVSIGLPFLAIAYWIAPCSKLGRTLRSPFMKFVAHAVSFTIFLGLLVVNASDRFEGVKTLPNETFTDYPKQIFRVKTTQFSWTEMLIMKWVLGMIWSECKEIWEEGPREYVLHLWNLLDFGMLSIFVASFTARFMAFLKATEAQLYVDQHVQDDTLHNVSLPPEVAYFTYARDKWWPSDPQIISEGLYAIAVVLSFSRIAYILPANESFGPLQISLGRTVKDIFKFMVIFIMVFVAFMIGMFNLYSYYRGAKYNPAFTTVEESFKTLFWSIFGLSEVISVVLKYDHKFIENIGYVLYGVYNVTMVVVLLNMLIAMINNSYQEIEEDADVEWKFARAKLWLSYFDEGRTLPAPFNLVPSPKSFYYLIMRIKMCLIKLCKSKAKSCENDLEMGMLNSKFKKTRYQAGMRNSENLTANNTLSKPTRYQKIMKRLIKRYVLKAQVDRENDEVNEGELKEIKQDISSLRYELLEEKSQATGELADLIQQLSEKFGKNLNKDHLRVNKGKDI
The test can be described thus: MST binding to TRPC7 protein. To be noted: for Kd: MST; for affinity strength to TRPC6 protein higher than to TRPC7 protein: MST Kd ratio. The procedure:
Preparation and labelling of protein solution: TRPC6 protein dry powder (Alomone Labs, Israel) was prepared into a protein mother solution at a concentration of 10 μM using PBS-Buffer, and 35 μL of the protein stock solution was taken to the Buffer exchange A column, and centrifuged to obtain the Tris-removed protein. 34 μL Labelling Buffer was added to the Tris-removed protein according to the instructions of the Protein Fluorescent Labelling Kit (model L001). After mixing well, 3 μL of NT-647-NHS fluorescent dye was added and thus obtained mixture was incubated for 20 minutes. The protein-dye mixture was transferred to the purification B column, 300 μL of PBS-Buffer was added, and the target protein, i.e. fluorescent labelled protein TRPC6, was collected by centrifugation (with a final concentration of about 2 μM). 180 μL of target protein was mixed with 1620 μL of PBS-Buffer, and then 9 μl of Tween-20 were added thereto. Thus the resulting mixture was mixed and then centrifuged to obtain the target protein solution.
Preparation of compound solutions: the compounds were prepared separately with DMSO to storage solutions with a concentration of […]. 10 μL of each storage solution was placed in a […] EP tube, 90 μL of PBS was added thereto and the resulting mixture was thoroughly mixed to prepare 100 μL of working solution at a concentration of 1 μM for later use. Ligand gradient dilutions were made for a total of 16 concentrations, and 10 μL of 10% DMSO-Buffer was added to each of the 15 gradients except gradient 1, followed by the addition of 10 μL of ligand working solution to gradients 1 and 2, respectively. The liquid in tube 2 was mixed and then 10 μL therein was taken into tube 3, and dilution was carried out in this manner until tube 16. Tube 16 was mixed and 10 μL therein was taken and discarded, and the remainder was kept for later use.
Detection and analysis: 10 μL of protein solution was added to the 16 compound gradient dilutions respectively and mixed, and the resultant mixtures were transferred to capillary tubes sequentially to start detection on machine. After loading the data, the MST analysis model and Kd Model were selected to obtain the fitting curve and dissociation constant (Kd).
The binding ability of the compounds of the present invention (as exemplified by the compounds 1-1 and 2-1 obtained in Examples 1 and 3) for other TRPC proteins (e.g., TRPC1, TRPC3, TRPC4, TRPC5, and TRPC7) was determined using the microscale thermophoresis (MST) method. The method was as follows:
The affinity of the compounds of the present invention with TRPC1, TRPC3, TRPC4, TRPC5 and TRPC7 proteins, respectively, was determined by the same method as in Example 5.

In the case of `Cn1c(C(=O)NCCC(=O)O)cc2ccccc21` [3-[(1-methyl-1H-indole-2-carbonyl)amino]propionic acid, reference compound], the tumor inhibition rate in test [1] (25 mg/kg once a day 14 days) stood at 52.8%. In addition, at TRPC7 protein, the Kd was found to be 1.04 µM and the “affinity strength to TRPC6 protein higher than to TRPC7 protein” value (“affinity strength” below) is 35 fold.
With `CC(=O)OCCCNC(=O)c1c(C=O)c2ccccc2n1C` [compound 1-1, propyl 3-[(3-formyl-1-methyl-1H-indole-2-carbonyl)amino]acetate], the tumor inhibition rate in test [1] (25 mg/kg once a day 14 days) came to 60.5%; in test [1] (50 mg/kg once a day 14 days), 69.4%. This compound also gave an equilibrium dissociation constant (Kd) on TRPC7 protein of 3.04 µM. Also, the “affinity strength” value on TRPC7 protein stood at 254 fold.
In the case of `Cn1c(C(=O)NCCCOC(=O)c2ccccc2)c(C=O)c2ccccc21` [compound 2-1], on TRPC7 protein, the affinity, expressed as Kd, was 3.21 µM and the “affinity strength” value worked out at 160 fold.
